Data reported in PMC6278568, “Discovery of 3-Amino-2-Hydroxypropoxyisoflavone Derivatives as Potential Anti-HCV Agents” (Molecules, 2018).
“Also recorded” adds a separate entry of the source.

Tests used:
HO-1 protein expression = HO-1 protein expression in Ava-5 cells by western blotting; format: cell-based; details: 10 μM, 3 days, compared with DMSO-treated cells
Method: To determine whether compounds 6b, 6e, 6h and 6i have impact on HO-1 protein expression in Ava-5 cells, we treated these compounds at 10 μM in Ava5 cells.
(§1) Ava5 cells were seeded in 24-well plates at a density of 5 × 10^4 cells per well overnight and treated with indicated reagent at proper concentrations for 3 days. Cells were washed with cold phosphate buffer saline (PBS) and lysed by radioimmunoprecipitation assay (RIPA) lysis buffer (50 mM Tris-HCl, pH 7.5, 150 mM NaCl, 1% Nonidet P-40, 2 mM EDTA, 1 mM EGTA, 1 mM NaVO3, 10 mM NaF, 1 mM DTT, 1 mM PMSF, 25 μg/mL aprotinin, and 25 μg/mL leupeptin) and stored at −20 °C. The protein concentration was determined by the Bradford method. Ten μg protein were separated by 10% SDS-PAGE and transferred onto a polyvinylidene difluorid (PVDF) membrane. The membrane was blocked with 5% non-fat dried milk and incubated with specific antibodies against NS5B (1:5000; Abcam Cambridge, MA, USA), glyceraldehyde-3-phosphate dehydrogenase (GAPDH) and anti-HO-1 (1:3000, Abcam Cambridge, MA, USA). Antibodies were diluted in 5% milk containing Tris-buffered saline (TBS) and 0.5% Tween. The blotting signal was developed using an ECL detection kit (PerkinElmer, Norwalk, CT, USA) and was counted by the software Quantity One (Bio-Rad, Foster, CA, USA).
Compound 6b, 6e, 6h and 6i induced HO-1 protein expression. Ava-5 cells were treated with compounds at 10 μM for 3 days. The cell lysate was subjected to western blotting with anti-HO-1 and anti-GAPDH antibodies.

ava-5 cells = assay: Cytotoxicity in Ava-5 cells (XTT method); format: cell-based
Method: (§2) Compounds were dissolved in DMSO at 10 mM and then diluted in culture medium.
(§3) Ava5 cells, an engineered HCV subgenomic replicon cell line, were cultured in Dulbecco′s modified Eagle′s medium (DMEM) with 10% heat-inactivated fetal bovine serum, 1% antibiotic–antimycotic, and 1% non-essential amino acids. Ava5 cells were maintained in DMEM with 1 mg mL^−1 G418 to maintain the stable expression of replicon.
(§4) For cytotoxicity tests, run in parallel with antiviral assays, plates at an initial density of (5 × 10^3 cells/well) were treated with or without serial dilutions of test compounds. Cell viability was determined after 72 h at 37 °C in a humidified CO2 (5%) atmosphere by the (2,3-bis[2-methyloxy-4-nitro-5-sulfophenyl]-2H-tetrazolium-5-carboxanilide) (XTT) method.

[1] = Cytotoxicity in Ava-5 cells (XTT method); format: cell-based; details: human, Ava5 cells (HCV subgenomic replicon cell line); Ava-5 cells, 72 h, XTT method; read-out: CC50 (concentration causing a 50% growth inhibition of uninfected ava-5 cells)
Method: as §2, §3, §4

HCV RNA = HCV RNA expression in Ava-5 cells by RT-qPCR; format: cell-based, Hepatitis C virus; details: Ava-5 cells, 2.5, 5, 10 and 20 μM, 3 days, normalized by GAPDH mRNA
Method: (§5) To further confirm the anti-HCV effect of compound 6b, we treated compound 6b at indicated concentrations in Ava-5 cells for 3 days. […] Treatment of 0.1% dimethyl sulfoxide (DMSO) served as a mock control on inhibition of HCV replication (Figure 3 and Figure 4).
Figure 3 Inhibition of HCV RNA expression in HCV-infected Ava-5 cells by 6b. Ava-5 cells were treated with 2.5, 5, 10 and 20 μM of 6b for 3 days. Total RNA was extracted and quantified HCV RNA levels by RT-qPCR. HCV RNA expression was normalized by cellular GAPDH mRNA. Treatment with 0.1% DMSO served as a mock control. The results are expressed as the means ± standard deviations (SD) of triplicate experiments.

HCV replication = assay: Anti-HCV activity in Ava-5 HCV subgenomic replicon cells (firefly luciferase assay); format: cell-based, Hepatitis C virus; details: Ava-5 cells
Method: Ava-5 cells were treated with compounds 6a–i or the positive ribavirin for three days, and then analyzed through firefly luciferase assay. The concentration that inhibited 50% HCV replication (EC50), the concentration that inhibited 50% cell growth (CC50), and the selectivity index (SI: CC50/EC50) of compounds were determined with ribavirin as a positive control.
as §2, §3

[2] = system: HCV protein synthesis (NS5B); assay: HCV protein synthesis in Ava-5 cells by western blotting; format: cell-based, Hepatitis C virus; details: Ava-5 cells, 2.5, 5, 10 and 20 μM, 3 days
Method: as §5
as §1, with “CA, USA). […]” for “CA, USA).”

[3] = system: Nrf2 / ARE transactivation; assay: ARE transactivation, p3xARE-Luc reporter in Ava-5 cells (luciferase assay); format: cell-based; details: p3xARE-Luc-transfected Ava-5 cells, 1 and 10 μM, 3 days
Description: Heme oxygenase 1 expression is regulated by the transcription factors Nrf2, Keap1, and Bach1 through the binding of ARE in its promoter region; therefore, we determined whether isoflavones-mediated HO-1 induction was dependent on ARE transactivation by treating p3xARE-Luc-transfected ava-5 cells with increasing concentrations of […] for 3 days.
Ava5 cells were transfected with the HO-1 promoter-driven luciferase plasmid, pHO-1-Luc, using the T-pro^TM transfection reagent (Ji-Feng Biotechnology Co., Ltd., Taipei, Taiwan) according to the manufacturer′s instructions. The transfected cells were treated with compounds at various concentrations for 3 days. Each transfection complex contains 0.1 μg pSEAP, a secreted alkaline phosphatase (SEAP) expression vector, for normalization luciferase activity serving as a transfection control. The luciferase activity assay was performed using the Bright-Glo Luciferase assay system (Promega) (Madison, WI, USA) according to the manufacturer′s instructions.
Figure 6 Isoflavones inhibited HCV replication by upregulating Nrf2 expression. Compound 6b, 6e, 6h and 6i stimulated ARE transactivation in Ava-5 cells. The antioxidant response reporter plasmid, p3xARE-Luc, was transfected into Ava-5 cells and then treated with isoflavones (1 and 10 μM) for 3 days. The relative induction of antioxidant activity was determined by luciferase assay. The activity of untreated Ava-5 cells was considered to be 1.

COc1ccc(CCNCC(O)COc2ccc3c(=O)c(-c4ccc(OC)c(OC)c4)coc3c2)cc1OC (stereo not drawn) [Compound 6b, 7-{3-[(3,4-Dimethoxyphenethyl)amino]-2-hydroxypropoxy}-3-(3,4-dimethoxyphenyl)-4H-chromen-4-one]
HO-1 protein level (HO-1 protein expression): could induce HO-1 protein level
cell cytotoxicity at the antiviral test concentrations (ava-5 cells; Ava5 cells, 2.5-20 μM, 3 days): without cell cytotoxicity
cytotoxicity compared with ribavirin (in words) (ava-5 cells; Ava-5 cells): less cytotoxic than ribavirin
CC50 at 72 h [1]: 138 ± 6.91 µM
HCV RNA replication / expression (HCV RNA): dose-dependently reduced; also recorded: inhibit the HCV RNA expression in Ava5 cells in a dose-dependent manner
melting point: 134 to 135 °C
anti-HCV activity compared with ribavirin (in words) (HCV replication; three days): more active than ribavirin
SI (selectivity index, CC50/EC50) (HCV replication; CC50/EC50): 21.08
EC50 (HCV replication; Hepatitis C virus, Ava5, 72 h, treated for three days, firefly luciferase assay, read-out: EC50 (concentration resulting in a 50% inhibition in virus production / HCV replication)): 6.53 ± 0.57 µM
anti-HCV activity relative to ribavirin (HCV replication; ratio of EC50 values): approximately 2 fold
HCV protein synthesis [2]: dose-dependently reduced
ARE-mediated luciferase activity [3]: increased ARE-mediated luciferase activity
